Experimental data reported in patent US20190169218A1, “AMPHIPATHIC COMPOUND HAVING NOVEL PENTA-SACCHARIDE HYDROPHILIC GROUP AND USE THEREOF” (Industry-University Cooperation Foundation Hanyang …, priority 2016, published 2019).

Columns and labels:
[1] = critical micelle concentration (CMC) by hydrophobic fluorescent staining with diphenylhexatriene (DPH); type: physicochemical
In short: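 CMC determined by hydrophobic fluorescent staining with diphenylhexatriene (DPH); micelle hydrodynamic radius measured separately by dynamic light scattering at 1.0 wt %, with DDM as reference detergent.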

[2] = hydrodynamic radius of micelles by dynamic light scattering (DLS); type: physicochemical; settings: compound at 1.0 wt %
In short: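 Micelle hydrodynamic radius (Rh) was measured by dynamic light scattering with each amphiphile at 1.0 wt %.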

[3] = target: T1, human β2 adrenergic receptor (β2AR) (Homo sapiens, UniProt P07550); assay: negative staining electron microscopy (EM) of purified β2AR
T1 construct: Flag; made in house
T1 sequence (P07550 whole entry): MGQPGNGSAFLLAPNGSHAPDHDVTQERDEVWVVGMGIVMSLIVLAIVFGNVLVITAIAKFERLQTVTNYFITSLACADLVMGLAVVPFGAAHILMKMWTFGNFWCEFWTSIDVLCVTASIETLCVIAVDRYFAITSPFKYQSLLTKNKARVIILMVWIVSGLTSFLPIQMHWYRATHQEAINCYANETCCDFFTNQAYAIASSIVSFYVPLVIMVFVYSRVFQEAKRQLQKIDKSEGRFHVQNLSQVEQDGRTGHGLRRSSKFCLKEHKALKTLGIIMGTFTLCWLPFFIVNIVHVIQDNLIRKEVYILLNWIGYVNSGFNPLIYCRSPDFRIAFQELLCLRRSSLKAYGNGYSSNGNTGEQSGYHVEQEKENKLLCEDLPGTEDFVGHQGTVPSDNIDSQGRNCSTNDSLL
Protocol: Electron microscopy (EM) analysis was performed on β2ARs solubilized in PSAs and PSEs.
Specifically, electron microscopy (EM) analysis was performed as follows. Samples were prepared using a conventional negative staining protocol (see Peisley, A. et al., G Protein-Coupled Receptors in Drug Discovery: Methods and Protocols, Methods in Molecular Biology, 1335, 29-38 (2015)). Briefly, 3 μL of β2ARs purified in DDM or the novel amphipathic compounds (PSA-C11, PSE-C11 and PSE-C13) was added into a glow-discharged carbon-coated grid by pipetting and stained with 1% (w/v) uranyl formate. Imaging was performed by operating a Morgagni 268 (D) transmission electron microscope (FEI Company) at 100 kV at room temperature. Images were recorded with an Orius SC200W CCD camera (Gatan Inc.) at a 30,416×magnification.

[4] = target: T2, Salmonella typhimurium melibiose permease (MelB) (Salmonella typhimurium, UniProt P30878); assay: MelB extraction efficiency and thermal stability by SDS-PAGE and western immunoblotting; settings: 1.5 wt %; for solubilized MelB remaining in solution: 90 minutes; for MelB extraction efficiency: 0° C., 90 minutes (similar results at 45° C.)
T2 construct: made in house; host or cells: DW2 cells (melB and lacZY), Salmonella typhimurium DW2; plasmid pK95AHB/WT MelBst/CH10
T2 sequence (P30878 whole entry): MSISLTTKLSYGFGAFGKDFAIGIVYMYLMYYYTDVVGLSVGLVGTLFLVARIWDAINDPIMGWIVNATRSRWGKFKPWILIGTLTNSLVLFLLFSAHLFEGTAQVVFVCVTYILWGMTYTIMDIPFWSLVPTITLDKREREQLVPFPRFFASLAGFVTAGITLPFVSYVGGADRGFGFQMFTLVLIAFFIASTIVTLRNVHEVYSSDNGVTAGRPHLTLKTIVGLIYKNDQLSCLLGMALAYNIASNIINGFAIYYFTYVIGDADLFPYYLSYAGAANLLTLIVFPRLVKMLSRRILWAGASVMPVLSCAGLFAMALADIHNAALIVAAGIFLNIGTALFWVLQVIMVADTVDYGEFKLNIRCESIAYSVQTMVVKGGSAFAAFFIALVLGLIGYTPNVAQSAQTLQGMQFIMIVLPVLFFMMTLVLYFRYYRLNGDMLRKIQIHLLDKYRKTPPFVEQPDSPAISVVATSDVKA
Protocol: The ability of PSAs or PSEs to extract (solubilize) MelBst (Salmonella typhimurium melibiose permease) proteins and stabilize the structures thereof was measured. MelB proteins were extracted using PSAs, PSEs or DDM, and the amount of the extracted proteins and structural stability thereof were quantitatively analyzed by SDS-PAGE and western immunoblotting. The protein extraction efficiency and thermally stabilizing ability of the amphipathic compounds were simultaneously evaluated by extracting MelB proteins at four temperatures (0, 45, 55 or 65° C.) for 90 minutes using the amphipathic compounds at a concentration of 1.5 wt %.
Specifically, according to the method described in the journal article (P. S. Chae, et al., Chemistry. 2013, 19, 15645-15651.) published by the present inventors, proteins (MelBst) were produced using a plasmid pK95AHB/WT MelBst/CH10 containing a gene construct encoding wild-type MelB having 10×His tags at the C-terminus and Salmonella typhimurium DW2 cells (melB and lacZY). According to the method described in the journal article (A. S. Ethayathulla et al., Nat. Commun. 2014, 5, 3009), cells were cultured and the cell membranes were obtained from the cultured cells. Protein analysis was performed using a Micro BCA kit (Thermo Scientific, Rockford, Ill.). To measure solubilization/stability, membrane samples (the final concentration of membrane proteins was 10 mg/mL) containing MelBst were mixed with a solubilization buffer solution (20 mM sodium phosphate, pH 7.5, 200 mM NaCl, 10% glycerol and 20 mM melibiose) containing DDM, PSAs (PSA-C11) or PSEs (PSE-C9, PSE-C11, PSE-C13) at a concentration of 1.5% (w/v). Extracts were incubated at four different temperatures (0, 45, 55 and 65° C.) for 90 minutes. Fractions were removed by ultracentrifugation at 355,590 g for 45 minutes using a Beckman Optima™ MAX ultracentrifuge equipped with a No. 4 TLA-100 rotor. 20 μg of proteins was separated using a 15% SDS-PAGE gel. Next, immunoblotting was performed using Penta-His-HRP antibodies (Qiagen, Germantown, Md.). After performing SDS-PAGE and immunoblotting, the amount of solubilized MelB was quantitated and expressed as a percentage of the amount of MelB measured in the control group.

| SMILES | CMC [1] [mM] | CMC (wt %) [1] [wt %] | Rh (nm), hydrodynamic radius of micelles [2] [nm] | agglutinated proteins in negative staining EM images of β2AR [3] | solubilized MelB remaining in solution ([4]; 55° C.) | MelB extraction efficiency [4] | solubilized MelB remaining in solution ([4]; 65° C.) |
| --- | --- | --- | --- | --- | --- | --- | --- |
| CCCCCCCCCCCCO[C@@H]1O[C@H](CO)[C@@H](O[C@H]2O[C@H](CO)[C@@H](O)[C@H](O)[C@H]2O)[C@H](O)[C@H]1O [DDM, n-dodecyl-β-D-maltopyranoside, reference compound] | ~0.17 | ~0.0087 | 3.4 ± 0.03 | many agglutinated proteins were observed | disappeared in the solution |  |  |
| CCCCCCCCCCCC(CCCCCCCCCCC)CO[C@@H]1OC(CO[C@@H]2OC(CO)[C@@H](O)C(O)C2O)[C@@H](O[C@@H]2OC(CO)[C@@H](O)C(O)C2O)C(O[C@@H]2OC(CO)[C@@H](O)C(O)C2O)C1O[C@@H]1OC(CO)[C@@H](O)C(O)C1O (some centres unmarked) [PSA-C11] | ~0.007 | ~0.0008 | 3.28 ± 0.03 | the agglutinated proteins were hardly observed | remained dissolved in the solution | extracted at an efficiency similar to the efficiency observed in the case of DDM |  |
| CCCCCCCCCCCOCC(COCCCCCCCCCCC)O[C@@H]1OC(CO[C@@H]2OC(CO)[C@@H](O)C(O)C2O)[C@@H](O[C@@H]2OC(CO)[C@@H](O)C(O)C2O)C(O[C@@H]2OC(CO)[C@@H](O)C(O)C2O)C1O[C@@H]1OC(CO)[C@@H](O)C(O)C1O (some centres unmarked) [PSE-C11] | ~0.004 | ~0.0005 | 3.46 ± 0.05 | the agglutinated proteins were hardly observed | remained dissolved in the solution | extracted at an efficiency similar to the efficiency observed in the case of DDM | a small amount of dissolved MelB was observed |
| CCCCCCCCCCCCCOCC(COCCCCCCCCCCCCC)O[C@@H]1OC(CO[C@@H]2OC(CO)[C@@H](O)C(O)C2O)[C@@H](O[C@@H]2OC(CO)[C@@H](O)C(O)C2O)C(O[C@@H]2OC(CO)[C@@H](O)C(O)C2O)C1O[C@@H]1OC(CO)[C@@H](O)C(O)C1O (some centres unmarked) [PSE-C13] | ~0.001 | ~0.0001 | 14.1 ± 0.24 | the amount of the agglutinated proteins was small | remained dissolved in the solution |  |  |
| CCCCCCCCOCC(COCCCCCCCC)(COCCCCCCCC)CO[C@@H]1OC(CO[C@@H]2OC(CO)[C@@H](O)C(O)C2O)[C@@H](O[C@@H]2OC(CO)[C@@H](O)C(O)C2O)C(O[C@@H]2OC(CO)[C@@H](O)C(O)C2O)C1O[C@@H]1OC(CO)[C@@H](O)C(O)C1O (some centres unmarked) [TPS-E8] | ~0.007 | ~0.0009 | 43.8 ± 16.3 |  |  |  |  |
